Assay results published in ChEMBL document CHEMBL1147398, “New structures and bioactivity patterns of bengazole alkaloids from a choristid marine sponge” (1993).

What was measured:
[1] = test system: COLO 205; experiment: Cytotoxicity against human COLO205 cells; type: functional
[2] = test system: SK-MEL-5; experiment: Cytotoxicity against human SK-MEL-5 cells; type: functional
[3] = read-out: LC50 (the source's name)

## CCCCCCCCCCCCCC(=O)O[C@@H](c1cnco1)c1nc([C@@H](O)C[C@@H](O)[C@@H](O)[C@@H](C)O)co1 [BENGAZOLE A]
[1]
  GI50: 0.181 µM
  TGI: 1.5 µM
[1]; [3]
  CC50: 5.25 µM
[2]
  GI50: 1.13 µM
  TGI: 4.83 µM
[2]; [3]
  CC50: 4.83 µM
